The values below come from patent US20170121322A1, “BET-PROTEIN INHIBITING 3,4-DIHYDROPYRIDO[2,3-B]PYRAZINONES WITH META-SUBSTITUTED AROMATIC AMINO- OR ETHER GROUPS” (Bayer Pharma Aktiengesellschaft, priority 2014, published 2017).

Assay [1] concerns MOLM-13 cells. Briefly: Cell proliferation assay MOLM-13, method 2 (CellTiterGlo). The format is cell-based. The following applies: Homo sapiens, MOLM-13, 72 h; acute myeloid leukaemia cells, 500 cells/well, 1536-well, 3-day incubation, CellTiterGlo ATP readout. Here is the method:
Alternatively, the MOLM-13 cells (DSMZ, ACC 554) were seeded at a concentration of 500 cells/well in 5 μl of growth medium (RPMI1640, 10% FCS) on 1536-well microtitre plates (method 2).
In method 2, after 3-day incubation with the inhibitor, the ATP concentration was determined as readout for the cell number using the CellTiterGlo kit (Promega). The measurement was carried out using a luminometer.
The substances were tested in the cell lines in Table 2, which represent the indications specified by way of example: […]

The target of assay [2] is T1, BRD4 bromo domain 2 [BRD4(2)] (Homo sapiens, UniProt O60885).
T1 construct: N-terminally His6-tagged BRD4(2) (amino acids 357-445); made in house; host or cells: E. coli
Briefly: BRD4(2)/acetylated peptide H4 TR-FRET binding assay. To be noted: His6-BRD4(2) (aa 357-445) vs acetylated histone H4 peptide. From the text:
To assess the BRD4(2) binding strength of the substances described in this application, the ability thereof to inhibit the interaction between BRD4(2) and acetylated histone H4 in a dose-dependent manner was quantified.
(§1) For this purpose, a time-resolved fluorescence resonance energy transfer (TR-FRET) assay was used, which measures the binding between N-terminally His6-tagged BRD4(2) (amino acids 357-445) and a synthetic acetylated histone H4 (Ac-H4) peptide with sequence SGRGK(Ac)GGK(Ac)GLGK(Ac)GGAK(Ac)RHRKVLRDNGSGSK-biotin. The recombinant BRD4(2) protein produced in-house according to Filippakopoulos et al., Cell, 2012, 149:214-231 was expressed in E. coli and purified by means of (Ni-NTA) affinity and (Sephadex G-75) size exclusion chromatography. The Ac-H4 peptide can be purchased, for example, from Biosyntan (Berlin, Germany).
(§2) In the assay, typically 11 different concentrations of each substance (0.1 nM, 0.33 nM, 1.1 nM, 3.8 nM, 13 nM, 44 nM, 0.15 μM, 0.51 μM, 1.7 μM, 5.9 μM and 20 μM) were analysed as duplicates on the same microtitre plate. For this purpose, 100-fold concentrated solutions in DMSO were prepared by serial dilutions (1:3.4) of a 2 mM stock solution into a clear, 384-well microtitre plate (Greiner Bio-One, Frickenhausen, Germany). From this, 50 nl were transferred into a black test plate (Greiner Bio-One, Frickenhausen, Germany). The test was started by the addition of 2 μl of a 2.5-fold concentrated BRD4(2) solution (final concentration typically 100 nM in the 5 μl of reaction volume) in aqueous assay buffer [50 mM HEPES pH 7.5, 50 mM sodium chloride (NaCl); 50 mM potassium fluoride (KF); 0.25 mM CHAPS and 0.05% serum albumin (BSA)] to the substances in the test plate. This was followed by a 10-minute incubation step at 22° C. for the pre-equilibration of putative complexes between BRD4(2) and the substances.
(§3) The mixture was then incubated in the dark at 22° C. for one hour and then at 4° C. for at least 3 hours and for no longer than overnight. The formation of BRD4(2)/Ac-H4 complexes was determined by the measurement of the resonance energy transfer from the streptavidin-Eu chelate to the anti-6His-XL665 antibody present in the reaction. For this purpose, the fluorescence emission was measured at 620 nm and 665 nm after excitation at 330-350 nm in a TR-FRET measuring instrument, for example a Rubystar or Pherastar (both from BMG Lab Technologies, Offenburg, Germany) or a Viewlux (Perkin-Elmer). The ratio of the emissions at 665 nm and at 622 nm was taken as an indicator of the amount of BRD4(2)/Ac-H4 complexes formed.
The data (ratios) obtained were normalized, with 0% inhibition corresponding to the mean from the measurements for a set of controls (typically 32 data points) in which all the reagents were present. In these, in place of test substances, 50 nl of DMSO (100%) were used. Inhibition of 100% corresponded to the mean from the measurements for a set of controls (typically 32 data points) in which all the reagents except BRD4(2) were present. The IC50 was determined by regression analysis based on a 4-parameter equation (minimum, maximum, IC50, Hill; Y=Max+(Min−Max)/(1+(X/IC50)Hill)).
(In general: Time-resolved FRET reads energy transfer from a long-lived donor to a nearby acceptor.)

Assay [3] deals with T2, BRD4 bromo domain 1 [BRD4(1)] (Homo sapiens, UniProt O60885).
T2 construct: N-terminally His6-tagged BRD4(1) (amino acids 67-152); made in house; host or cells: E. coli
Briefly: BRD4(1)/acetylated peptide H4 TR-FRET binding assay. The following applies: His6-BRD4(1) (aa 67-152) vs acetylated histone H4 peptide.
Description: To assess the BRD4(1) binding strength of the substances described in this application, the ability thereof to inhibit the interaction between BRD4(1) and acetylated histone H4 in a dose-dependent manner was quantified.
as §1, with “BRD4(1)” for “BRD4(2)”, “67-152)” for “357-445)”, “GRGK(Ac)GGK(Ac)GLGK(Ac)GGAK(Ac)RHGSGSK-biotin.” for “SGRGK(Ac)GGK(Ac)GLGK(Ac)GGAK(Ac)RHRKVLRDNGSGSK-biotin.”
as §2, with “concentrated BRD4(1)” for “concentrated BRD4(2)”, “typically 10” for “typically 100”, “chloride (NaCl),” for “chloride (NaCl); 50 mM potassium fluoride (KF);”, “between BRD4(1)” for “between BRD4(2)”, “substances. Subsequently, 3 μl of a solution of 1.67 times the concentration (in assay buffer) consisting of Ac-H4 peptide (83.5 nM) and TR-FRET detection reagents [16.7 nM anti-6His-XL665 and 3.34 nM streptavidin cryptate (both from Cisbio Bioassays, Codolet, France), and 668 mM potassium fluoride (KF)] were added.” for “substances.”
as §3, with “BRD4(1)/Ac-H4” for “BRD4(2)/Ac-H4”, “cryptate” for “chelate”
The data (ratios) obtained were normalized, with 0% inhibition corresponding to the mean from the measurements for a set of controls (typically 32 data points) in which all the reagents were present. In these, in place of test substances, 50 nl of DMSO (100%) were used. Inhibition of 100% corresponded to the mean from the measurements for a set of controls (typically 32 data points) in which all the reagents except BRD4(1) were present. The IC50 was determined by regression analysis based on a 4-parameter equation (minimum, maximum, IC50, Hill; Y=Max+(Min−Max)/(1+(X/IC50)Hill).

One may read the IC50 as the concentration at which inhibition is half-maximal. Higher therefore signals a need for much substance. Turning to `C[C@@H]1C(=O)N(C)c2ccc(Nc3cccc(-c4ccc(C#N)cc4)c3)nc2N1C1CCOCC1` [Example 18, 3′-{[(3R)-1,3-Dimethyl-2-oxo-4-(tetrahydro-2H-pyran-4-yl)-1,2,3,4-tetrahydropyrido[2,3-b]pyrazin-6-yl]amino}biphenyl-4-carbonitrile], the IC50 in assay [1] was found to be 1650 nM; in assay [2], 294 nM; in assay [3] it was 1100 nM.

Take `C=CCS(=O)(=O)c1ccc(OC)c(Nc2ccc3c(n2)N(C2CCN(C)CC2)[C@H](C)C(=O)N3C)c1` [Example 23, (3R)-6-{[5-(Allylsulphonyl)-2-methoxyphenyl]amino}-1,3-dimethyl-4-(1-methylpiperidin-4-yl)-3,4-dihydropyrido[2,3-b]pyrazin-2(1H)-one]: the IC50 was found to be 51 nM in assay [1], 64 nM in assay [2] and 27 nM in assay [3].

As for `COc1ccc(S(=O)(=O)C(C)C)cc1Nc1ccc2c(n1)N(C1CCN(C(=O)OC(C)(C)C)CC1)[C@H](C)C(=O)N2C` [Example 24, tert-Butyl 4-[(3R)-6-{[5-(isopropylsulphonyl)-2-methoxyphenyl]amino}-1,3-dimethyl-2-oxo-2,3-dihydropyrido[2,3-b]pyrazin-4(1H)-yl]piperidine-1-carboxylate], the IC50 in assay [1] amounted to 147 nM; in assay [2] it was 78 nM; in assay [3], 86 nM.

As to `COc1ccc(S(C)(=O)=O)cc1Nc1ccc2c(n1)N(C1CCN(C(=O)OC(C)(C)C)CC1)[C@H](C)C(=O)N2C` [Example 25, tert-Butyl 4-[(3R)-6-{[2-methoxy-5-(methylsulphonyl)phenyl]amino}-1,3-dimethyl-2-oxo-2,3-dihydropyrido[2,3-b]pyrazin-4(1H)-yl]piperidine-1-carboxylate], the IC50 was 576 nM in assay [1], 135 nM in assay [2] and 156 nM in assay [3].

With `CC(C)S(=O)(=O)c1cccc(Nc2ccc3c(n2)N(C2CCN(CCC(F)(F)F)CC2)[C@H](C)C(=O)N3C)c1` [Example 30, (3R)-6-{[3-(Isopropylsulphonyl)phenyl]amino}-1,3-dimethyl-4-[1-(3,3,3-trifluoropropyl)piperidin-4-yl]-3,4-dihydropyrido[2,3-b]pyrazin-2(1H)-one], the IC50 in assay [1] came out at 73 nM; in assay [2], 114 nM; in assay [3] it was 20 nM.

Regarding `CCS(=O)(=O)c1ccc(Oc2ccc(F)cc2)c(Nc2ccc3c(n2)N(C2CCN(C)CC2)[C@H](C)C(=O)N3C)c1` [Example 32, (3R)-6-{[5-(Ethylsulphonyl)-2-(4-fluorophenoxy)phenyl]amino}-1,3-dimethyl-4-(1-methylpiperidin-4-yl)-3,4-dihydropyrido[2,3-b]pyrazin-2(1H)-one], the half-maximal inhibitory concentration (IC50) in assay [1] turned out to be 40 nM; in assay [2], 29 nM; in assay [3], 945 nM.

With `CCS(=O)(=O)c1ccc(Oc2ccccc2)c(Nc2ccc3c(n2)N(C2CCN(C)CC2)[C@H](C)C(=O)N3C)c1` [Example 33, (3R)-6-{[5-(Ethylsulphonyl)-2-phenoxyphenyl]amino}-1,3-dimethyl-4-(1-methylpiperidin-4-yl)-3,4-dihydropyrido[2,3-b]pyrazin-2(1H)-one], the IC50 in assay [1] is 26 nM; in assay [2], 51 nM; in assay [3], 15 nM.

For the molecule `CCS(=O)(=O)c1ccc(Oc2ccccc2)c(Nc2ccc3c(n2)N(C2CCOCC2)[C@H](C)C(=O)N3C)c1` [Example 36, (3R)-6-{[5-(Ethylsulphonyl)-2-phenoxyphenyl]amino}-1,3-dimethyl-4-(tetrahydro-2H-pyran-4-yl)-3,4-dihydropyrido[2,3-b]pyrazin-2(1H)-one], the IC50 was found to be 160 nM in assay [1], 49 nM in assay [2] and 34 nM in assay [3].

In the case of `CCS(=O)(=O)c1ccc(Oc2ccc(F)cc2)c(Nc2ccc3c(n2)N(C2CCOCC2)[C@H](C)C(=O)N3C)c1` [Example 37, (3R)-6-{[5-(Ethylsulphonyl)-2-(4-fluorophenoxy)phenyl]amino}-1,3-dimethyl-4-(tetrahydro-2H-pyran-4-yl)-3,4-dihydropyrido[2,3-b]pyrazin-2(1H)-one], the IC50 in assay [1] is 124 nM; in assay [2], 39 nM; in assay [3], 35 nM.

Regarding `C[C@@H]1C(=O)N(C)c2ccc(Nc3cccc(N4CCN(C)CC4)c3)nc2N1C1CCOCC1` [Example 41, (3R)-1,3-Dimethyl-6-{[3-(4-methylpiperazin-1-yl)phenyl]amino}-4-(tetrahydro-2H-pyran-4-yl)-3,4-dihydropyrido[2,3-b]pyrazin-2(1H)-one], the IC50 in assay [1] came out at 708 nM; in assay [2] it was 630 nM; in assay [3] it was 133 nM.
